The record followed here is PMC12910644 (Journal of Medicinal Chemistry, 2026).

Data set [1] concerns the target T1, CK1γ3 (Homo sapiens, UniProt Q9Y6M4). The experiment in a line: Eurofins radiometric enzymatic assay CK1γ3. It counts as biochemical. Conditions: read-out: enzymatic IC50 CK1γ3, ATP at Km, N = 1.
Target sequence in this assay (Q9Y6M4 33-362): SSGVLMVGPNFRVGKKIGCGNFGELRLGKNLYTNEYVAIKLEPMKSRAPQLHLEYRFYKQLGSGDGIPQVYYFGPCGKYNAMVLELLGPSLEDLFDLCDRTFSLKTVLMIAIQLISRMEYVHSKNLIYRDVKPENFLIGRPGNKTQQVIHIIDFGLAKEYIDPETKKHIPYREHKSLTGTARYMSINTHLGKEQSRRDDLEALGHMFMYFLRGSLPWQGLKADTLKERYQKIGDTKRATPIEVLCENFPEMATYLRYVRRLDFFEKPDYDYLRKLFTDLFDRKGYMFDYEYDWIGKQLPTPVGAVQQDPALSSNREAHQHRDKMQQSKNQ
Data set [2] concerns the target T2, CK1γ2 (Homo sapiens, UniProt P78368). The experiment in a line: CK1γ2 NanoBRET assay with tracer 23, intact cells. The settings on record: intact HEK293 cells, N = 1. Format: cell-based. (BRET reads energy transfer from a luciferase to a nearby fluorophore.)
The target of data set [3] is T3, CK1γ1 (Homo sapiens, UniProt Q9HCP0). Briefly: Eurofins radiometric enzymatic assay CK1γ1. It counts as biochemical.
The target of data set [4] is T3, CK1γ1. Briefly: CK1γ1 NanoBRET assay with tracer 23, intact cells. The settings on record: intact HEK293 cells, N = 1. It counts as cell-based.
Data set [5] concerns the target T2, CK1γ2. The experiment in a line: Eurofins radiometric enzymatic assay CK1γ2. It counts as biochemical.
Data set [6] addresses T1, CK1γ3. The experiment in a line: CK1γ3 NanoBRET assay with tracer 23, intact cells. It counts as cell-based. The settings on record: intact HEK293 cells, N = 1.
Target sequence in this assay (Q9Y6M4 whole entry): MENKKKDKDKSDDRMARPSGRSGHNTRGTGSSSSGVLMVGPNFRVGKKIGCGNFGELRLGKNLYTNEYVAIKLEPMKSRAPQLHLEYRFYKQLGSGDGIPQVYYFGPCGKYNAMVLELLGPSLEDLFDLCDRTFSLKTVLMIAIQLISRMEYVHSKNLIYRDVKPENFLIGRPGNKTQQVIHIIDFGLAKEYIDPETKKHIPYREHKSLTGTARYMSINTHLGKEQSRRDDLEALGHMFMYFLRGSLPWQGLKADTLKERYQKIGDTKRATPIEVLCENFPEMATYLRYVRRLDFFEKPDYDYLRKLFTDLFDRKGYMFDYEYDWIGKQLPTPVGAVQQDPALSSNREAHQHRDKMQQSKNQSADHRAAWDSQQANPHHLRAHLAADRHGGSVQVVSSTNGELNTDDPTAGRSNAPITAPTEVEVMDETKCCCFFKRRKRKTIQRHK
Data set [7] deals with LRP6 phosphorylation at T1479. Briefly: Western blot of LRP6 phosphorylation in HEK293 cells. Format: cell-based, human. The settings on record: 5 μM, WNT3A and R-Spondin-1, 2 h. For orientation: A western blot detects proteins with antibodies after separation by electrophoresis.
The target of a further data set is T4, MOK (Homo sapiens, UniProt Q9UQ07).
T4 sequence (Q9UQ07 1-419): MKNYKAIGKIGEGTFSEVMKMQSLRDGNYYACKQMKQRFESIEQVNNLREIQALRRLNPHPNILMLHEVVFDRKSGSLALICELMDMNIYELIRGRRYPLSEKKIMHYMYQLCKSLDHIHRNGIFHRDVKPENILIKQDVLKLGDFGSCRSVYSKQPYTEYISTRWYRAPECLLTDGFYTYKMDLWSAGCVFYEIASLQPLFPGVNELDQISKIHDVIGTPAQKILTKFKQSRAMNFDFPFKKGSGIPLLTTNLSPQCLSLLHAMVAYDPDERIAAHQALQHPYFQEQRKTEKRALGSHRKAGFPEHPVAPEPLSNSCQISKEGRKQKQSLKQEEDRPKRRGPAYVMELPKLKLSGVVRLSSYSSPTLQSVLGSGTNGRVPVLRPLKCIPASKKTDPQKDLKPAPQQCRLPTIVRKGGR
Briefly: MOK NanoBRET assay. It counts as cell-based.

The target of data set [8] is panel of 192 kinases (Homo sapiens, UniProt P78368). Briefly: K192 NanoBRET kinase selectivity panel. It counts as cell-based. Conditions: read-out: %Fractional Occupancy.
Another data set is described as follows: Dynamic light scattering. Format: physicochemical. The settings on record: HBS buffer, 2% DMSO, 25 °C.
Another data set deals with HEK293 cells. The experiment in a line: CellTiter-Glo HEK293 cell viability assay. It counts as cell-based, human. Conditions: 10 μM for 24 or 48 h.
In another data set the target is CLK4 (Homo sapiens, UniProt Q9HAZ1). Briefly: CLK4 NanoBRET assay.
The target in data set [9] is panel of 192 kinases (Homo sapiens, UniProt Q9HAZ1). The experiment in a line: K192 NanoBRET kinase selectivity panel. Conditions: read-out: %Fractional Occupancy. Format: cell-based.
Setting [10] is: read-out: NB IC50 CK1γ3, tracer 23.
Setting [11] is: read-out: NB IC50 CK1γ2, tracer 23.
The mark [12] stands for this setting: read-out: NB IC50 CK1γ1, tracer 23.

Some results are limits rather than exact numbers.

In general, IC50 refers to the concentration at which inhibition is half-maximal.

T2 sequence (P78368 whole entry): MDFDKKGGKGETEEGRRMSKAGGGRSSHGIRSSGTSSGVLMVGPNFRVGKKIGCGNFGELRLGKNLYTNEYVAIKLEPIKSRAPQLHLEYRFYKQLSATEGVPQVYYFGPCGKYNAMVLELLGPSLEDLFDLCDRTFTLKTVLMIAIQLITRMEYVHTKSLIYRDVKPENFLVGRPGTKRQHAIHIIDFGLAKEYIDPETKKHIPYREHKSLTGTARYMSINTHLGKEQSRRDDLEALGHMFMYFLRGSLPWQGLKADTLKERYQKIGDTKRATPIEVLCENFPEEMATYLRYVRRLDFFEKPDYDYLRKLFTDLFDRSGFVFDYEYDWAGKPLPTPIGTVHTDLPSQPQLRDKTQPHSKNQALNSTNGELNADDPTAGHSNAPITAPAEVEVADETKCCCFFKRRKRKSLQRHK
T3 sequence (Q9HCP0 whole entry): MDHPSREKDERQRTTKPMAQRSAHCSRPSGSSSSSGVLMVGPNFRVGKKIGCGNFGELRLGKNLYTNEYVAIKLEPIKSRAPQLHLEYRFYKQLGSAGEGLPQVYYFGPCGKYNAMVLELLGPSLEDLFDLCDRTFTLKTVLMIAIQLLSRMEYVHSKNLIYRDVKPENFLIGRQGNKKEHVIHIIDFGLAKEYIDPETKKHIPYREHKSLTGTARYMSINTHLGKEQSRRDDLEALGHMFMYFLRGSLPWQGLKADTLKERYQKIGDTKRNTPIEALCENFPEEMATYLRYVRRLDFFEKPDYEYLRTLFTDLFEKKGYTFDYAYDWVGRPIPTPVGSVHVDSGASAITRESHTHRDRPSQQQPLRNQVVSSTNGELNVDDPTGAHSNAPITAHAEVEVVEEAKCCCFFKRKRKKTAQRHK
Chain of CLK4 (Q9HAZ1 whole entry): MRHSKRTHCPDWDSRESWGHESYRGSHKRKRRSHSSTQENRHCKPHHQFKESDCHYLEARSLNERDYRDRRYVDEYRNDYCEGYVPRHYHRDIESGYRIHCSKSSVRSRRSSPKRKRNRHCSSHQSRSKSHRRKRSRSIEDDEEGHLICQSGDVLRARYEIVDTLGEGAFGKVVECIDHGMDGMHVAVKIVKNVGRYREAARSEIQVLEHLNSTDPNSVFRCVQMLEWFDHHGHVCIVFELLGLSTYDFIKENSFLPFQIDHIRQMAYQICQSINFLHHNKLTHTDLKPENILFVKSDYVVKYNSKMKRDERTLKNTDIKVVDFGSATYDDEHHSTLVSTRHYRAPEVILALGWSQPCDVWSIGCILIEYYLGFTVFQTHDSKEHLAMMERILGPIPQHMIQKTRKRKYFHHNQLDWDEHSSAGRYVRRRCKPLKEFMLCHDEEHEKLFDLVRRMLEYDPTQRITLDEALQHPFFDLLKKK
Chain of panel of 192 kinases (Homo sapiens, UniProt Q9HAZ1) (Q9HAZ1 whole entry): as above
Chain of panel of 192 kinases (Homo sapiens, UniProt P78368) (P78368 whole entry): as the sequence (P78368 whole entry) above

For `N#Cc1ccc2nc(Nc3ccc(N4CCOCC4)cc3)[nH]c2c1` [Compound 4, 2-((4-morpholinophenyl)amino)-1H-benzo[d]imidazole-6-carbonitrile], the IC50 at CK1γ3 [1] is 1300 nM; on CK1γ2 [2] (NB IC50 CK1γ2, tracer 23) it was 920 nM; against CK1γ1 [3], 430 nM; against CK1γ1 [4] (NB IC50 CK1γ1, tracer 23), 910 nM; against CK1γ2 [5], 81 nM.
`COc1cc(N2CCOCC2)ccc1Nc1nc2ccc(C#N)cc2[nH]1` [Compound 5, 2-((2-Methoxy-4-morpholinophenyl)amino)-1H-benzo[d]imidazole-6-carbonitrile]: the IC50 against CK1γ3 [6] (NB IC50 CK1γ3, tracer 23) is above 30000 nM; on CK1γ3 [1], 2750 nM; against CK1γ2 [2] (NB IC50 CK1γ2, tracer 23), above 30000 nM; against CK1γ1 [3], 5520 nM; at CK1γ1 [4] (NB IC50 CK1γ1, tracer 23), above 30000 nM; against CK1γ2 [5] it was 4170 nM. Moreover, the “LRP6 phosphorylation at T1479” value in data set [7] is recorded as “did not occur”.
On to `N#Cc1ccc2nc(Nc3ccc(N4CCOCC4)c(F)c3)[nH]c2c1` [Compound 9, 2-((3-Fluoro-4-morpholinophenyl)amino)-1H-benzo[d]imidazole-6-carbonitrile], for which the IC50 was found to be 656 nM at CK1γ3 [1]; 770 nM against CK1γ2 [2] (NB IC50 CK1γ2, tracer 23); 212 nM on CK1γ1 [3]; 980 nM on CK1γ1 [4] (NB IC50 CK1γ1, tracer 23); 34 nM against CK1γ2 [5].
As to `N#Cc1ccc2nc(Nc3ccc(N4CCOCC4)c(C(F)(F)F)c3)[nH]c2c1` [Compound 10, 2-((4-Morpholino-3-(trifluoromethyl)phenyl)amino)-1H-benzo[d]imidazole-6-carbonitrile], the IC50 against CK1γ3 [6] (NB IC50 CK1γ3, tracer 23) was 1350 nM; against CK1γ2 [2] (NB IC50 CK1γ2, tracer 23) it was 780 nM; against CK1γ1 [3], 120 nM; against CK1γ1 [4] (NB IC50 CK1γ1, tracer 23), 1400 nM; against CK1γ2 [5] it was 34 nM.
Consider `N#Cc1ccc2nc(Nc3cc(F)c(N4CCOCC4)c(F)c3)[nH]c2c1` [Compound 11, 2-((3,5-Difluoro-4-morpholinophenyl)amino)-1H-benzo[d]imidazole-6-carbonitrile], for which the IC50 against CK1γ3 [6] (NB IC50 CK1γ3, tracer 23) came out at 3300 nM; at CK1γ3 [1] it was 976 nM; against CK1γ1 [3], 121 nM; against CK1γ1 [4] (NB IC50 CK1γ1, tracer 23), 920 nM; at CK1γ2 [5], 25 nM.
On to `N#Cc1ccc2nc(Nc3ccc(N4CCOCC4)c(Cl)c3)[nH]c2c1` [Compound 14, 2-((3-Chloro-4-morpholinophenyl)amino)-1H-benzo[d]imidazole-6-carbonitrile], for which the IC50 is 958 nM on CK1γ3 [1]; 180 nM against CK1γ2 [2] (NB IC50 CK1γ2, tracer 23); above 5000 nM at MOK; 180 nM on CK1γ1 [4] (NB IC50 CK1γ1, tracer 23). Besides, the receptor occupancy at 1 µM at panel of 192 kinases [8] worked out at 74%. For the same compound, the “aqueous solubility in DLS” value in “Dynamic light scattering” is listed as “good aqueous solubility”. Further, in the data set on HEK293 cells, the “HEK293 cell viability (CellTiter-Glo)” value is on record as “did not impact cell viability”.
`N#Cc1ccc2nc(Nc3ccc(N4CCOCC4)c(Br)c3)[nH]c2c1` [Compound 15, 2-((3-Bromo-4-morpholinophenyl)amino)-1H-benzo[d]imidazole-6-carbonitrile]: the IC50 against CK1γ3 [6] (NB IC50 CK1γ3, tracer 23) was 110 nM; at CK1γ3 [1] it was 700 nM; at CK1γ2 [2] (NB IC50 CK1γ2, tracer 23) it was 110 nM; at CK1γ1 [4] (NB IC50 CK1γ1, tracer 23) it was 580 nM.
Take `N#Cc1ccc2[nH]c(Nc3ccc(N4CCCCC4)c(Cl)c3)nc2c1` [Compound 20, 2-((3-Chloro-4-(piperidin-1-yl)phenyl)amino)-1H-benzo[d]imidazole-5-carbonitrile]: the IC50 was 300 nM on CK1γ3 [6] (NB IC50 CK1γ3, tracer 23); 475 nM at CK1γ3 [1]; 250 nM against CK1γ2 [2] (NB IC50 CK1γ2, tracer 23); 380 nM against CK1γ1 [4] (NB IC50 CK1γ1, tracer 23).
Take `CN1CCN(c2ccc(Nc3nc4ccc(C#N)cc4[nH]3)cc2Cl)CC1` [Compound 21, 2-((3-Chloro-4-(4-methylpiperazin-1-yl)phenyl)amino)-1H-benzo[d]imidazole-6-carbonitrile]: the concentration for half-maximal inhibition (IC50) is 180 nM at CK1γ3 [6] (NB IC50 CK1γ3, tracer 23); 431 nM at CK1γ3 [1]; 220 nM at CK1γ2 [2] (NB IC50 CK1γ2, tracer 23); 570 nM on CLK4; 170 nM on CK1γ1 [4] (NB IC50 CK1γ1, tracer 23). Further, at panel of 192 kinases [9], the receptor occupancy at 1 µM turned out to be 49%.
Take `Cc1ccc2nc(NC(=O)CSc3nc4c(c(=O)n3-c3ccc(F)cc3)SCC4)sc2c1` [IWP-3, reference compound]: the 50% inhibitory concentration (IC50) at CK1γ3 [6] (setting [10]), on CK1γ2 [2] (setting [11]) and at CK1γ1 [4] (setting [12]) was above 30000 nM throughout.
As for `Nc1nccc(-c2c(-c3ccc(F)cc3)ncn2C2CCCCC2)n1` [PF-670462, reference compound], the IC50 on CK1γ3 [6] (setting [10]), at CK1γ2 [2] (setting [11]) and at CK1γ1 [4] (setting [12]) was above 30000 nM in each case.
